Test results taken from patent US8614327B2 (Vertex Pharmaceuticals Incorporated, priority 2004, dated 2013).

Target: T1, ΔF508-CFTR (Homo sapiens, UniProt P13569, DEL508-508)
T1 construct: expressed in transfected cells
Test: Membrane potential optical (FRET/VIPR) assay, identification of potentiator compounds
Type: cell-based
Details: Table 3, assay not given; for % Activity: relative efficacy
Procedure, shortened: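 Double-addition potentiator screen: compound delivered in gluconate-substituted Cl^--free medium, membrane potential followed via CC2-DMPE/DiSBAC2(3) FRET on VIPR. Cells were ΔF508-CFTR-expressing NIH3T3 mouse fibroblasts, held 2 h at 37° C. then 24 h at 27° C. before assay.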

T1 sequence (P13569 with tags, fused parts or gaps DEL508-508): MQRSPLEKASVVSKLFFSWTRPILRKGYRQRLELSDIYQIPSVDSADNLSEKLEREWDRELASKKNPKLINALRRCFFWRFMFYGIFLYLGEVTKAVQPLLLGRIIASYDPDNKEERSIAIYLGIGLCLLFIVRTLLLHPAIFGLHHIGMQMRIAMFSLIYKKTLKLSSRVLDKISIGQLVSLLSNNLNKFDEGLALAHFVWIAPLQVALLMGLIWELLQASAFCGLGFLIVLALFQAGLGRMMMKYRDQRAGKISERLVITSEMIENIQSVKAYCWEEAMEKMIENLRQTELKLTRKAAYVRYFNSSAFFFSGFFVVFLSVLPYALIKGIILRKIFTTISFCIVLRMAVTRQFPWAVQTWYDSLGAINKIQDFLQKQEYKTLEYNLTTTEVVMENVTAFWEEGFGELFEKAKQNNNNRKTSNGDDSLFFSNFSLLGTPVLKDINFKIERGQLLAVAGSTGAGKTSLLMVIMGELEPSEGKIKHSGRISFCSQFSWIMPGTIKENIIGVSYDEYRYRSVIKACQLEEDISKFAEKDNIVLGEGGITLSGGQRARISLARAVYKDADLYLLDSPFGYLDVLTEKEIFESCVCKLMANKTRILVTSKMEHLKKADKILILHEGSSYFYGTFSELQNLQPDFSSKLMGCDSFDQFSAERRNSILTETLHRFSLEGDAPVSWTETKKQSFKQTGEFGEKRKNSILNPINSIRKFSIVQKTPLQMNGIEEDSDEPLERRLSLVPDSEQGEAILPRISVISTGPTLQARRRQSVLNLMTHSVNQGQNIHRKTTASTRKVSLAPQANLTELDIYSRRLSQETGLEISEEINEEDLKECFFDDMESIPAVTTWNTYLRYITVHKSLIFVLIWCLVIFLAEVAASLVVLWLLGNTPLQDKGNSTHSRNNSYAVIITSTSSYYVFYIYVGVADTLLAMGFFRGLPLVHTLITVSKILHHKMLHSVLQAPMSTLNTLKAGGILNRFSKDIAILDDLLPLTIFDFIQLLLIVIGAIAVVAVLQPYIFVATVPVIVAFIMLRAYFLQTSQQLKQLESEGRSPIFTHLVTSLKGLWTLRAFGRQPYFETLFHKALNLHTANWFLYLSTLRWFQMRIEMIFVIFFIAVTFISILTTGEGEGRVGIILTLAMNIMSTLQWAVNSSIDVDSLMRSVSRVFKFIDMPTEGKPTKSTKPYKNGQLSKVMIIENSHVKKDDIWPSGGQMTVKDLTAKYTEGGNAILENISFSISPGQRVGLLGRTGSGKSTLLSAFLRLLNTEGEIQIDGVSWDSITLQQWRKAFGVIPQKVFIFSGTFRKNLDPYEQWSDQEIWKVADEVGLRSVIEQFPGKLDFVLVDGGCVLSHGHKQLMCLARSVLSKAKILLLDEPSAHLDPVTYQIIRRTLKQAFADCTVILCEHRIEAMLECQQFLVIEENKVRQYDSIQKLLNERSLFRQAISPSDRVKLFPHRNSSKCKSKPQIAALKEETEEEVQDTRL

Structure (SMILES): Cc1ccc2[nH]cc(C(=O)Nc3ccc(N4CCCC4C)cc3C(F)(F)F)c(=O)c2c1 (stereo not drawn) [Compound 503, 6-methyl-N-[4-(2-methylpyrrolidin-1-yl)-2-(trifluoromethyl)phenyl]-4-oxo-1H-quinoline-3-carboxamide]
- EC50: < 10 µM
- % Activity: ++ (between 25% to 100%)

Structure (SMILES): COc1ccc2[nH]cc(C(=O)Nc3ccc(N4CCC(C)(C)C4)cc3C(F)(F)F)c(=O)c2c1 [Compound 504, N-[4-(3,3-dimethylpyrrolidin-1-yl)-2-(trifluoromethyl)phenyl]-6-methoxy-4-oxo-1H-quinoline-3-carboxamide]
- EC50: < 10 µM
- % Activity: ++ (between 25% to 100%)

Structure (SMILES): CC(C)(C)c1cc(C(C)(C)C)c(NC(=O)c2c[nH]c3c(C#N)cccc3c2=O)cc1O [Compound 505, 8-cyano-N-(5-hydroxy-2,4-ditert-butyl-phenyl)-4-oxo-1H-quinoline-3-carboxamide]
- EC50: < 10 µM
- % Activity: + (<25%)

Structure (SMILES): O=C(Nc1ccc(C(F)(F)F)c(O)c1)c1c[nH]c2ccccc2c1=O [Compound 506, N-[3-hydroxy-4-(trifluoromethyl)phenyl]-4-oxo-1H-quinoline-3-carboxamide]
- EC50: < 10 µM
- % Activity: ++ (between 25% to 100%)

Structure (SMILES): CCc1cc(C(C)(C)C)c(O)cc1NC(=O)c1c[nH]c2cccc(O)c2c1=O [Compound 507, N-(2-ethyl-5-hydroxy-4-tert-butyl-phenyl)-5-hydroxy-4-oxo-1H-quinoline-3-carboxamide]
- EC50: < 10 µM
- % Activity: ++ (between 25% to 100%)

Structure (SMILES): CC(C)(C)c1c[nH]c2cc(NC(=O)c3c[nH]c4ccccc4c3=O)c(C(F)(F)F)cc12 [Compound 508, 4-oxo-N-[3-tert-butyl-5-(trifluoromethyl)-1H-indol-6-yl]-1H-quinoline-3-carboxamide]
- % Activity: ++ (between 25% to 100%)

Structure (SMILES): CC(C)(C)c1cc(C(F)(F)F)c(NC(=O)c2c[nH]c3ccc(F)cc3c2=O)cc1O [Compound 509, 6-fluoro-N-[5-hydroxy-4-tert-butyl-2-(trifluoromethyl)phenyl]-4-oxo-1H-quinoline-3-carboxamide]
- EC50: < 10 µM
- % Activity: ++ (between 25% to 100%)

Structure (SMILES): CC(C)(C)c1ccc(NC(=O)c2c[nH]c3ccccc3c2=O)cc1N1CCCCC1 [Compound 510, 4-oxo-N-[3-(1-piperidyl)-4-tert-butyl-phenyl]-1H-quinoline-3-carboxamide]
- EC50: < 10 µM
- % Activity: ++ (between 25% to 100%)

Structure (SMILES): Cc1cccc2[nH]cc(C(=O)Nc3ccc(N4CCC[C@@H]4C)cc3C(F)(F)F)c(=O)c12 [Compound 511, (S)-5-methyl-N-(4-(2-methylpyrrolidin-1-yl)-2-(trifluoromethyl)phenyl)-4-oxo-1,4-dihydroquinoline-3-carboxamide]
- EC50: < 10 µM
- % Activity: ++ (between 25% to 100%)

Structure (SMILES): O=C(Nc1cc(O)c(C2CCCC2)cc1C#CCO)c1c[nH]c2ccccc2c1=O [Compound 512, N-[4-cyclopentyl-5-hydroxy-2-(3-hydroxyprop-1-ynyl)phenyl]-4-oxo-1H-quinoline-3-carboxamide]
- EC50: < 10 µM
- % Activity: ++ (between 25% to 100%)

Structure (SMILES): CN(C)[C@H]1CCN(c2ccc(NC(=O)c3c[nH]c4ccccc4c3=O)c(C(F)(F)F)c2)C1 [Compound 513, (S)-N-(4-(3-(dimethylamino)pyrrolidin-1-yl)-2-(trifluoromethyl)phenyl)-4-oxo-1,4-dihydroquinoline-3-carboxamide]
- EC50: < 10 µM
- % Activity: ++ (between 25% to 100%)

Structure (SMILES): O=C(Nc1ccc(C(F)(F)F)cc1N1CCCCC1)c1c[nH]c2ccccc2c1=O [Compound 514, 4-oxo-N-[2-(1-piperidyl)-4-(trifluoromethyl)phenyl]-1H-quinoline-3-carboxamide]
- EC50: < 10 µM
- % Activity: ++ (between 25% to 100%)

Structure (SMILES): CC(C)(C)c1cc(C(C)(C)C)c(NC(=O)c2c[nH]c3ccc(C(F)(F)F)cc3c2=O)cc1O [Compound 515, N-(5-hydroxy-2,4-ditert-butyl-phenyl)-4-oxo-6-(trifluoromethyl)-1H-quinoline-3-carboxamide]
- % Activity: + (<25%)

Structure (SMILES): Cc1cccc2[nH]cc(C(=O)Nc3ccc(N4[C@@H](C)CC[C@@H]4C)cc3C(F)(F)F)c(=O)c12 [Compound 516, N-(4-((2S,5S)-2,5-dimethylpyrrolidin-1-yl)-2-(trifluoromethyl)phenyl)-5-methyl-4-oxo-1,4-dihydroquinoline-3-carboxamide]
- EC50: < 10 µM
- % Activity: ++ (between 25% to 100%)

Structure (SMILES): CCOc1cccc2c(=O)c(C(=O)Nc3ccc(C(C)C)cc3C(F)(F)F)c[nH]c12 [Compound 517, 8-ethoxy-N-[4-isopropyl-2-(trifluoromethyl)phenyl]-4-oxo-1H-quinoline-3-carboxamide]
- EC50: < 10 µM
- % Activity: + (<25%)

Structure (SMILES): Cc1cc(C(C)(C)C)c(O)cc1NC(=O)c1c[nH]c2ccccc2c1=O [Compound 518, N-(5-hydroxy-2-methyl-4-tert-butyl-phenyl)-4-oxo-1H-quinoline-3-carboxamide]
- EC50: < 10 µM
- % Activity: ++ (between 25% to 100%)

Structure (SMILES): CC(C)(C)c1cc(F)c(NC(=O)c2c[nH]c3c(C#N)cccc3c2=O)cc1O [Compound 519, 8-cyano-N-(2-fluoro-5-hydroxy-4-tert-butyl-phenyl)-4-oxo-1H-quinoline-3-carboxamide]
- EC50: < 10 µM
- % Activity: ++ (between 25% to 100%)

Structure (SMILES): CC(C)(C)c1cc(C(C)(C)C)c(NC(=O)c2c[nH]c3cccc(C(F)(F)F)c3c2=O)cc1O [Compound 520, N-(5-hydroxy-2,4-ditert-butyl-phenyl)-4-oxo-5-(trifluoromethyl)-1H-quinoline-3-carboxamide]
- EC50: < 10 µM
- % Activity: ++ (between 25% to 100%)

Structure (SMILES): CC1(c2ccc(NC(=O)c3c[nH]c4ccc(F)cc4c3=O)cc2)COC1 [Compound 521, 6-fluoro-N-[4-(3-methyloxetan-3-yl)phenyl]-4-oxo-1H-quinoline-3-carboxamide]
- EC50: < 10 µM
- % Activity: ++ (between 25% to 100%)

Structure (SMILES): O=C(Nc1ccc(C2CCCCC2)c(O)c1)c1c[nH]c2cccc(O)c2c1=O [Compound 522, N-(4-cyclohexyl-3-hydroxy-phenyl)-5-hydroxy-4-oxo-1H-quinoline-3-carboxamide]
- EC50: < 10 µM
- % Activity: ++ (between 25% to 100%)

Structure (SMILES): CC1(c2ccc(NC(=O)c3c[nH]c4ccccc4c3=O)cc2)COC1 [Compound 523, N-[4-(3-methyloxetan-3-yl)phenyl]-4-oxo-1H-quinoline-3-carboxamide]
- EC50: < 10 µM
- % Activity: ++ (between 25% to 100%)

Structure (SMILES): CCOc1ccc2[nH]cc(C(=O)Nc3cc(O)c(C(C)(C)C)cc3C(C)(C)C)c(=O)c2c1 [Compound 524, 6-ethoxy-N-(5-hydroxy-2,4-ditert-butyl-phenyl)-4-oxo-1H-quinoline-3-carboxamide]
- EC50: < 10 µM
- % Activity: ++ (between 25% to 100%)
